| melting point | SMILES |
| --- | --- |
| 118 to 119 °C | Cc1ccc(C)c(C(=O)CC(C)(C)C(=O)O)c1 |
| 234 to 236 °C | O=C(O)Cc1cc(O)c(CC(=O)O)cc1O |
| 25 °C | CN1CCN(CCCN2c3ccccc3Sc3ccc(C(F)(F)F)cc32)CC1 |
| 67 °C | CC(=O)C1C(=O)c2ccccc2CC1c1ccccc1 (stereo not given) |
| 134 °C | COC(=O)C1(C(=O)OC)Cc2cc(OC)ccc2C(=O)O1 |
| 194 °C | NC(=O)C1c2ccccc2CCc2ccccc21 |
| 283 °C | COC(=O)c1ccccc1NC(=S)NNC(=O)C(=O)c1c[nH]c2ccccc12 |
| 255 to 257 °C | CCOC(=O)c1cn[nH]c1NC(=O)Nc1ccc(F)cc1 |
| 304 to 307 °C | O=C(O)c1csc(-c2ccncc2)n1 |
| 141 °C | Cc1ccc(C(C(=O)NC(C)(C)C)N(C)C(=O)CCCc2ccc3ccc4cccc5ccc2c3c45)cc1 (stereo not given) |
| 197 to 199 °C | NC(=O)c1ccc(-c2ccccn2)s1 |
| 8 °C | COc1ccc(CCC(C)=O)cc1 |
| 131 °C | N=c1sc(C(=O)c2cccs2)nn1-c1ccncc1 |
| 141 °C | O=C1C=C(NCCc2ccccc2)C(=O)c2ccccc21 |
| 43 to 45 °C | O=Cc1ccccc1OCCN1CCOCC1 |
| 208 to 209 °C | Cc1ccc(C(=O)O)cc1Cl |
| 116 to 117 °C | CCOC(=O)C(C#N)=Cc1ccc(-c2ccccc2)o1 |
| 153 to 155 °C | NNC(=O)c1cnn(-c2ccccc2)c1C(F)(F)F |
| 123 to 125 °C | O=C(NCNN(CNC(=O)c1ccccc1)CNC(=O)c1ccccc1)c1ccccc1 |
| 231 to 233 °C | O=c1[nH]c2scc(-c3ccccc3)c2c(=O)n1-c1cccc(C(F)(F)F)c1 |
| 169 °C | Cc1cccc(C)c1NC(=O)C=CC(=O)O |
| 117 to 133 °C | CCCCC(=O)c1ccc2c(c1)OCCOCCOc1cc(C(=O)CCCC)ccc1OCCOCCO2 |
| 199 °C | CC(=O)Nc1ccc(N(Nc2ccccc2)C(C)=O)cc1 |
| 22 to 23 °C | O=C(Cl)c1ccc(Oc2ccccc2)cc1 |
| 118 °C | O=C(c1ccc2c3c(cccc13)CC2)C(Br)c1ccccc1 (stereo not given) |

| melting point | SMILES |
| --- | --- |
| 36.5 °C | O=C1CCC(c2ccccc2)O1 (stereo not given) |
| 125 to 129 °C | Cc1ccccc1CC(NC(=O)OC(C)(C)C)C(=O)O (racemic) |
| 103 to 105 °C | N#Cc1ccc(-n2cccc2)cc1 |
| 144 to 145 °C | CCOC(=O)NNC(=O)Nc1ccccc1 |
| 113 °C | COC(=O)C1(C(=O)OC)Cc2ccccc2C(=O)O1 |
| 153 to 154 °C | CCOC(=O)c1cnn(-c2ccc(F)cc2)c1N |
| 60 °C | O=C1c2ccccc2C(=O)N1CCCCCBr |
| 201 to 203 °C | Cc1cc(C(F)(F)F)n2nc(N)c(/N=N/c3ccccc3)c2n1 |
| 237 to 239 °C | CCOC(=O)C1=NN(c2ccc([N+](=O)[O-])cc2)C2(C)CC3(c4ccccc4)N(c4ccc([N+](=O)[O-])cc4)N=C(C(=O)OCC)N3c3ccccc3N12 (stereo not given) |
| 211 °C | S=c1sc2ccccc2n1CSc1nc2ccccc2s1 |
| 304 °C | Nc1ccc2c(c1)C(=O)c1ccccc1C2=O |
| 143 to 147 °C | Cc1nc(-c2ccccc2)c(CO)s1 |
| 156 °C | O=C(O)c1ccc2c(c1)OC(F)(F)O2 |
| 119 °C | O=C1NN(c2ccccc2)C(=O)C1(Br)Br |
| -51.6 °C | CCCOC(=O)c1ccccc1 |
| 75 to 76 °C | CC(C)CC1=CC(=Cc2ccc(-c3ccccc3)o2)C(=O)O1 |
| 176 °C | COc1ccc(C=C2SC(=S)N(CNc3ccc([N+](=O)[O-])cc3)C2=O)cc1 |
| 123 °C | CC(=O)NC1Cc2ccccc21 (stereo not given) |
| 220 to 222 °C | O=C1CC(c2ccccc2)Oc2ccc(O)cc21 (stereo not given) |
| 112 °C | N#CCS(=O)(=O)c1ccccc1 |
| 105 to 106 °C | CCCOc1ccc(C(N)=NO)cc1 |
| 168 to 169 °C | Cc1ncc([N+](=O)[O-])n1CCCN1C(=O)c2ccccc2C1=O |
| 201 °C | O=C(O)c1ccc(O)c(O)c1 |
| 103 °C | Clc1ccc(P(c2ccc(Cl)cc2)c2ccc(Cl)cc2)cc1 |

Further lines, the compound ahead of its results:

| SMILES | melting point |
| --- | --- |
| CCC(Cc1c(I)cc(I)c(N)c1I)C(=O)O (stereo not given) | 155 °C |
| O=C1C2CC(CN3CCCCC23)C2CCCCN12 (stereo not given) | 111 °C |
| Cc1ccncc1[N+](=O)[O-] | 20 °C |
| CN(C)C(C)(C)CO | 19 °C |
| Cn1cnnc1-c1cccc(N)c1 | 158 to 159 °C |
| Cc1ccc(O)c(CO)n1 | 157 to 159 °C |
| O=C(O)C1CCOCC1 | 87 to 89 °C |
| CC(C)=NOCCOC(=O)C(C)Oc1ccc(Oc2cnc3cc(Cl)ccc3n2)cc1 (stereo not given) | 66.3 °C |
| O=C1CC2C(CC(O)C2CO)O1 (single isomer, unassigned; (-)) | 114 to 118 °C |
| S=C(n1ccnc1)n1ccnc1 | 96 to 103 °C |
| COc1ccc2c(CBr)cc(=O)oc2c1 | 212 to 217 °C |
| BrCCc1ccc(CCBr)cc1 | 73 °C |
| CCOC(=O)c1c(C)csc1N | 81 °C |
| Cc1nc(-c2cccc(S(=O)(=O)Cl)c2)no1 | 67 to 69 °C |
| CN(C)C(=O)[C@@H](O)[C@H](O)C(=O)N(C)C | 186 to 188 °C |
| CN1CCCN(c2ccc(C=O)cc2)CC1 | 44 to 46 °C |
| O=[N+]([O-])c1cc(Br)cc(Br)c1O | 118 to 119 °C |
| COc1cc([N+](=O)[O-])ccc1Br | 104 °C |
| Nc1n[nH]c(S)n1 | 300 °C |
| CSC(S)=Nc1ccc(Br)cc1 | 133 to 134 °C |
| COc1ccc(/C=C/c2ccc([N+](=O)[O-])cc2[N+](=O)[O-])cc1O | 190 to 191 °C |

| SMILES | melting point |
| --- | --- |
| CC(O)c1cc(C(F)(F)F)cc(C(F)(F)F)c1 (stereo not given) | 72 °C |
| COc1cc(C=C(O)C(F)(F)C(F)(F)F)nc(OC)n1 | 58 to 60 °C |
| Cc1cc(Cl)ccc1C(=O)O | 172 to 173 °C |
| COc1ccc(-n2c(=S)[nH]c3ccccc3c2=O)cc1 | 307 to 310 °C |
| OCC(I)CC(F)(F)C(F)(F)C(F)(F)C(F)(F)C(F)(F)C(F)(F)F (stereo not given) | 45 to 46 °C |
| O=C1CNCCCNCC(=O)NCCCN1 | 141 °C |
| COc1ccc(C(N)=O)cc1OC | 164 °C |
| CC1=CC(=O)C(C(C)C)=CC1=O | 45.5 °C |
| C1=CC2OC1c1ccccc12 | 53 to 58 °C |
| CC(C)c1cccc(O)c1 | 26 °C |
| O=C1C=CC(=O)c2c(O)ccc(O)c21 | 237 °C |
| Nc1c(I)cc(I)cc1C(=O)O | 241 to 243 °C |
| Cc1n[nH]c2c(=O)n(-c3ccc(Cl)cc3)c(C)nc12 | 313 to 315 °C |
| Cc1cc(C)c2c(c1)OC(=O)C2 | 105 °C |
| N#Cc1c(-c2cccs2)cc(-c2ccco2)[nH]c1=O | 318 to 320 °C |
| COc1ccc([N+](=O)[O-])cc1Cl | 94 to 96 °C |
| CCOC(=O)C1=C(C)NC(C)=C(C(=O)OCC)C1c1cccc(OC)c1O | 207 °C |
| CN1CC(Br)C(=O)NC1=O (stereo not given) | 153 to 155 °C |
| COc1cc(C(=O)OCCCN(C)CCN(C)CCCOC(=O)c2cc(OC)c(OC)c(OC)c2)cc(OC)c1OC | 76 °C |
| O=C1CCCc2occc21 | 60.5 to 61.5 °C |
| COc1ccc2c(c1)CCC2=O | 109 °C |

| SMILES | melting point |
| --- | --- |
| C1=CCNCC1 | -48 °C |
| Oc1noc2cc(Cl)ccc12 | 215 to 217 °C |
| CCOc1ccc(N)c([N+](=O)[O-])c1 | 110 to 114 °C |
| Oc1cc(Cl)c(Cl)c(Cl)c1 | 101 °C |
| Cc1cc2cc3cc(C)[nH]c3cc2[nH]1 | > 170 °C |
| CC(=O)c1cnccn1 | 77 °C |
| COC(=O)c1cc(N)cc(N)c1 | 133 °C |
| COc1cc(Br)c(C=O)cc1OC | 150 °C |
| CCCC=NO | -29.5 °C |
| CC(C)(C)C(O)C(Cc1ccc(Cl)cc1)n1cncn1 (stereo not given) | 166 °C |
| c1ccc(CP(c2ccccc2)c2ccccc2)cc1 | 75 °C |
| COc1ccc2[nH]cnc2c1 | 122 °C |
| CCNS(=O)(=O)c1ccc(C)cc1 | 64 °C |
| CC12CCC3C(=CCc4cc(O)ccc43)C1CCC2O (stereo not given) | 174 °C |
| Brc1ccc(Oc2ccc(Br)cc2Br)cc1 | 64 to 64.5 °C |
| CC(CCC(O)(Cl)Cl)C1CCC2C3C(O)CC4CC(O)CCC4(C)C3CC(O)C12C (stereo not given) | 162 to 170 °C |
| COc1cc(Oc2ccc(Cl)cc2Cl)ccc1[N+](=O)[O-] | 114 °C |
| O=CC1=Cc2cc(O)ccc2OC1 | 165 °C |
| CCCCCCCCCCCCS(=O)(=O)Cl | 40.5 °C |
| CCOC(=O)c1cn[nH]c1 | 77 °C |
| Cc1cc(N)c(Cl)cc1F | 69 to 71 °C |

| SMILES | melting point |
| --- | --- |
| Ic1ccc(-c2ccc(I)cc2)cc1 | 207 °C |
| Cc1cnc(N)c(C)n1 | 96 °C |
| CC(C)NCC(O)COc1cccc2c1C=CC2 (stereo not given) | 88.5 °C |
| CC1(C)C(=O)N(Cl)C(=O)N1Br | 164 °C |
| O=Cc1ccc(C=O)c([N+](=O)[O-])c1 | 97 °C |
| COC(=O)c1cnc(Cl)nc1 | 76 to 80 °C |
| Nc1c(Cl)c(Cl)nc(C(=O)O)c1Cl | 218 °C |
| Nc1ncnc2c1ncn2C1OC(CO)C(OP(=O)(O)O)C1O (stereo not given) | 197 °C |
| Cc1c(C)c(C)c(O)c(C)c1C | 128 °C |
| Cc1ccc(N)c(O)c1 | 157 °C |
| CCOC(=O)c1c(C)nsc1N | 111 to 113 °C |
| C[C@@]12CCC=C1[C@@H]1CC[C@@H]3C[C@H](O)CC[C@]3(C)[C@H]1CC2 | 129 to 130 °C |
| COC(=O)C(C#N)=Cc1cc(Br)c(O)c(OC)c1 | 200 °C |
| NC(=O)C(F)(Br)C(F)(F)F (stereo not given) | 83 to 84 °C |
| O=C(CS(=O)C(c1ccccc1)c1ccccc1)NO (stereo not given) | 159 °C |
| COC(=O)CC(C)=O | 27.5 °C |
| COC(=O)CCC(C)C1CCC2C3C(=O)CC4CCCCC4(C)C3CC(=O)C12C (stereo not given) | 140 °C |
| O=c1c(O)c(O)c(=O)c1=O | 331 to 334 °C |

Reference: a melting point compilation (Tetko et al.)
